# In EP2570123A1, “Use of 2,4-dichlorobenzyl alcohol having an anaesthetic effect” (Reckitt Benckiser Healthcare (UK) Limited, priority 2007, dated 2009):
# Experiments:
# [1] = target: T1, α-subunit of NaV1.2 neuronal sodium channels (Rattus norvegicus, UniProt P04775); assay: cell-based; conditions: for sensitivity at -70 mV holding potential compared to hyperpolarized holding potentials: -70 mV versus -100 and/or -150 mV; for nHR: Hill coefficient, resting state binding; for blocking potency compared with lidocaine (words): block of resting channels
# Procedure: Stably transfected HEK 293 cell lines expressing the α-subunit of NaV1.2 neuronal sodium channels from a rat were used. The expression vector pRc/CMV (Invitrogen, San Diego, USA) was used for mammalian transfection. Transfection was performed using calcium phosphate precipitation. Permanent expression was achieved by selection for resistance to the aminoglycoside antibiotic geneticin G418 (Life Technology, Eggenstein, Germany).
# The stock solution was then dissolved directly in bath solution. The bath solution contained [mM] NaCl 140, MgCl2 1.0, KCl 4.0, CaCl2 2.0, Hepes 5.0, dextrose 5.0. Patch electrodes contained [mM] CsCl2 130, MgCl2 2.0, EGTA 5.0, Hepes 10. All solutions were adjusted to 290 mosm 1^-1 by the addition of mannitol and to pH 7.4 by the addition ofCsOH.
# Standard whole-cell voltage-clamp experiments were performed at 20°C. Each experiment consisted of test recordings with the drug present at only one concentration, and of drug-free control recordings before and after the test. Each cell was exposed to one test concentration only. At least three or five independent experiments were performed at each concentration depending on the active being tested.
# For data acquisition and further analysis, a EPC9 digitally-controlled amplifier was used in combination with Pulse and Pulse Fit software (HEKA Electronics, Lambrecht, Germany). The EPC9 provides automatic subtraction of capacitive and leakage currents by means of a prepulse protocol. The data were filtered at 10 kHz and digitized at 20 µs per point. The input resistance of the patch pipettes was 2.0-3.5 MΩ and the capacitances of the cells were 9-15 pF; the residual series resistance (after 50% compensation) was 1.2-2.5 MΩ. Experiments with a rise in series resistance were rejected. To minimize time-dependent shifts in the voltage-dependence of steady-state inactivation, all test experiments were performed within 5 min of patch rupture.
# Drug effects on the peak current amplitude were assessed at a hyperpolarized membrane potentials (-100 mV and -150mV), at a holding potential close to the normal resting potential in physiological conditions (-70 mV), and, additionally, at -100 mV in the presence of a fraction of slow inactivated channels. Slow inactivation was induced by long (2.5 s) prepulses to -90, -70, -50, -30 and -10 mV, followed by a short hyperpolarization to allow recovery from fast-inactivation. In our protocol the recovery interval was prolonged to 100 ms (instead of 10 ms originally described) in order to allow sufficient time not only for drug-free, but also for all drug-bound states to recover from fast inactivation. The residual sodium current (Inorm) in the presence of a drug (with respect to the peak current elicited with the same protocol during wash-out) elicited with a single test pulse to 0 mV was plotted against the applied concentration of the drug [C]. Concentration-response-curves were fitted using a Hill equation yielding the concentrations for half-maximum channel blockade (ICR50), and the respective Hill coefficients nH. (I)/(Imax) = (IC50^nH)/(IC50^nH + C^nH) [formula] (I)/(Imax) = a(ICR50^nH)/(ICR50^nH + C^nH) + (1-a)(ICI50^nH)/(ICI50^nH + C^nH) [formula]
# In the presence of Hexetidine, a 2-state Hill equation, Eq. 2, was applied, yielding the concentrations for half-maximum channel blockade in the inactivated state (ICI50), the respective Hill coefficient nH, and the respective amplitudes a and (1-a). The values previously obtained for ICR50 and nH were entered as constant factors.
# [2] = target: T1, α-subunit of NaV1.2 neuronal sodium channels; assay: Whole-cell voltage-clamp, double-pulse protocol: steady-state availability (fast inactivation), voltage shift and model-dependent affinity for inactivated channels; type: cell-based; design: expressed in transfected cells; host or cells: HEK 293, stably transfected with expression vector pRc/CMV and selected with G418; conditions: for nHI: Hill coefficient for inactivated state binding, model fit of Eq.4; for maximum shift in voltage-dependence of sodium channel availability: negative shift in midpoints of steady-state availability plots
# Procedure: Transfection was performed using calcium phosphate precipitation. […] Successful channel expression was verified electrophysiologically.
# The bath solution contained [mM] […] Patch electrodes contained [mM]
# Each cell was exposed to one test concentration only.
# Experiments with a rise in series resistance were rejected.
# Drug binding to inactivated channels is hardly accessible to a direct experimental approach, because inactivated channel states and all drug-bound channel states are unavailable on depolarization. A model-dependent method is generally applied to determine the affinity to fast-inactivated channel states. The voltage-dependence of the block and the affinity for fast-inactivated channel states was further assessed by applying a double-pulse protocol. Currents elicited by test pulses (Itest), starting from varying prepulse potentials (from -150 mV to -5 mV), normalized to the current elicited at the most hyperpolarized prepotential (-150 mV), represent the relative fraction of channels that have not been inactivated during the 100 ms inactivating prepulse. Boltzmann fits to the resulting current-voltage plots yield the membrane potential at half-maximum channel availability (V0.5) and the slope factor k, reflecting the 'voltage sensitivity' of inactivation gating (see Eq. 3). (I)/(Imax) = (1)/(1 + e^(((Vtest -V0.5)/(k)))) [formula]
# In control conditions, the parameters of the Boltzmann fits reflect the voltage-dependence of the distribution between resting and fast-inactivated channels (the availability curve). In the presence of the drug, the steady-state availability curve reflects drug association with rested and fast-inactivated channels, respectively. […] The underlying assumption is that the higher amount of channel blockade achieved with consecutive membrane depolarization is determined by the distribution of channels between resting and fast-inactivated states along the voltage axis (i.e. the channel availability curve), and by the different binding affinities of the blocking drug for the two channel states. The voltage shift ΔV0.5 in the presence of a drug would depend upon the drug concentration [C] according to Eq. 4. A fit of the model to ΔV0.5 plotted against concentration yields estimates for the concentration for half-maximum effect on fast-inactivated channels ICI50 and the Hill-type coefficient for drug binding to inactivated channels n: ΔV0.5 = k.ln[(1+([C])/(ICR50))/(1+(([C])^n)/(ICR50^n)) [formula]
# K and ICR50 are entered as constant factors. K is the slope factor of the availability curve in the controls and ICR50 is the concentration for half-maximum effect on resting channels, obtained at -100 mV holding potential.
# [3] = -100 mV, after application of higher concentrations (> EC50)
# [4] = ECR50, half maximum blocking concentration, resting channels, fit to concentration-response plots at -150 mV holding potential, HEK 293, 20°C
# [5] = estimate for inactivated channels, model fit of Eq.4 to concentration-dependence of the voltage shift in the availability curve, read-out: ECI50
# T1 sequence (P04775 whole entry): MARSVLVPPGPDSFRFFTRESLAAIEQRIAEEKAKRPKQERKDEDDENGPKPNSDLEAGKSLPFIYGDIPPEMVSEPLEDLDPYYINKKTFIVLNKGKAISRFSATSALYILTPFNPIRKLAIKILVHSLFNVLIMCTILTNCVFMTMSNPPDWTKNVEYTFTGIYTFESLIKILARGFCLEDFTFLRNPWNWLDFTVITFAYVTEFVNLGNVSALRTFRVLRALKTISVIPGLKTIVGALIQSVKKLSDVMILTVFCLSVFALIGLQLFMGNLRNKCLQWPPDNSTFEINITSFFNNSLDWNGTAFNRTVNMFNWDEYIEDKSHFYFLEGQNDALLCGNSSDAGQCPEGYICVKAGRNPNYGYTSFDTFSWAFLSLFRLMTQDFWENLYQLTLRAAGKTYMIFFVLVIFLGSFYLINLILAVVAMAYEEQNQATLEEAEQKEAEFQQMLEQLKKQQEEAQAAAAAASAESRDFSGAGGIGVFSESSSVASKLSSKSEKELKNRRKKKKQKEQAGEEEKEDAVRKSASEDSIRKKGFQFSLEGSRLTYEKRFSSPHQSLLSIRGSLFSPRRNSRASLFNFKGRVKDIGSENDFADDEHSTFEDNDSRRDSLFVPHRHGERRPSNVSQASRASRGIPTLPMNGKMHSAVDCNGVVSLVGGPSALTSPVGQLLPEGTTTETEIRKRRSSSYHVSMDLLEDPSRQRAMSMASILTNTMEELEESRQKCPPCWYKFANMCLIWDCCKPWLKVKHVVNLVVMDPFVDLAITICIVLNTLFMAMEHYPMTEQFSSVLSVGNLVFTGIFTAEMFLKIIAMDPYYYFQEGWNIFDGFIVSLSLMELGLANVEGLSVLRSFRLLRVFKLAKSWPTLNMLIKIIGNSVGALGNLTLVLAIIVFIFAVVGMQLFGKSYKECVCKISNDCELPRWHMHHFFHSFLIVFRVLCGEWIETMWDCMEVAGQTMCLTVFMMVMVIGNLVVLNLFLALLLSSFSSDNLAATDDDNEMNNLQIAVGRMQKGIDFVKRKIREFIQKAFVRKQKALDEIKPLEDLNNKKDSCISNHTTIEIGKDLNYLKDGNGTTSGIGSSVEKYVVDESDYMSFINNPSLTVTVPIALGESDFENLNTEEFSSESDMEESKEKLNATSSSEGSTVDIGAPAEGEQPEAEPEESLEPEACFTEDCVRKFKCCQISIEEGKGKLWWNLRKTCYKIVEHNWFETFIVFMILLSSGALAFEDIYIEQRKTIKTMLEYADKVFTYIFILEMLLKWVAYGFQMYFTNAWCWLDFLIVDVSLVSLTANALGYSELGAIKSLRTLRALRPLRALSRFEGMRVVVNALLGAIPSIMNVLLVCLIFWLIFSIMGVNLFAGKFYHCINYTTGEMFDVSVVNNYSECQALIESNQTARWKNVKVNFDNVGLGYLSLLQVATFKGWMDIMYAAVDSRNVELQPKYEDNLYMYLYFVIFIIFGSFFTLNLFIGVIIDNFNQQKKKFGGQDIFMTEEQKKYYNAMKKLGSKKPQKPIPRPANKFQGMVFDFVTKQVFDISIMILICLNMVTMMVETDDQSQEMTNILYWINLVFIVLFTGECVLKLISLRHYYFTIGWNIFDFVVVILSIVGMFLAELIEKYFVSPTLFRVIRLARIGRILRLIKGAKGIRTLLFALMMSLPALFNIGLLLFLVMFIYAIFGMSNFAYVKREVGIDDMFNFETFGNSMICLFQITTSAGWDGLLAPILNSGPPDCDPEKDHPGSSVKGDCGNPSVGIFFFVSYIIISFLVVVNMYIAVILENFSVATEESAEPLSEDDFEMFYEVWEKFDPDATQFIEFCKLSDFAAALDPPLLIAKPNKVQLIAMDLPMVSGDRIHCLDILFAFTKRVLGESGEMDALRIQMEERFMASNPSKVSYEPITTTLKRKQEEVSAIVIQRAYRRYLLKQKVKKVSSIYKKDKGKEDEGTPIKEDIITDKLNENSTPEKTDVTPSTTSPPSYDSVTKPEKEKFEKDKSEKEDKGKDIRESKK
Structure (SMILES),"currents during wash-out, % of control current ([1]; -70 mV holding potential)","currents during wash-out, % of control current ([1]; -100 mV holding potential)","currents during wash-out, % of control current [1, 3]","currents during wash-out, % of control current ([1]; -150 mV holding potential)",sensitivity at -70 mV holding potential compared to hyperpolarized holding potentials [1],"IC50 [1, 4]",nHR ([1]; -150 mV holding potential),estimated affinity to inactivated channels compared to resting channels [2],nHI [2],"IC50 [2, 5]",maximum shift in voltage-dependence of sodium channel availability [2],other results
"CCCCCc1ccc(C)cc1O [AMC, amylmetacresol]",64 ± 9%,91 ± 3%,94 ± 6%,90 ± 3%,,,,,,,,IC50 [1]: 55 µM; potency for block of resting sodium channels relative to lidocaine ([1]; depolarization from the resting state): around 10 fold; IC50 [2]: 22 µM; ECI50 lower than the ECR50 ([2]; inactivated versus resting channels): around 3 fold
"OCc1ccc(Cl)cc1Cl [DCBA, 2,4-dichlorobenzyl alcohol]",63 ± 9%,89 ± 5%,,88 ± 3%,slightly increased,657 µM,3.5,several fold higher,0.4,5.2 µM,-15 mV,"currents during wash-out, % of control current amplitude ([1]; -100 mV holding potential, after 300 and 500 µM DCBA): 71 ± 3%; blocking potency compared with lidocaine (words) ([1]; listed as Dichlorobenzyl alcohol): about as potent as lidocaine; blocking potency compared with lidocaine (words) ([1]; listed as dichlorobenzyl alcohol): comparable"
"CCCCCCc1ccc(O)cc1O [HR, hexylresorcinol]",,94 ± 4%,90 ± 10%,95 ± 3%,,21 µM,,,,0.3 µM,,
"CCCCC(CC)CN1CN(CC(CC)CCCC)CC(C)(N)C1 (stereo not drawn) [HT, hexetidine]",47 ± 11%,,,80 ± 8%,increased,35 µM,1.08,several fold higher,0.5,0.05 µM,-21 mV,"concentrations toxic for the seal in whole cell experiments [1]: above 30 µM; block of sodium inward currents ([1]; 100 µM, 3 experiments, not solely attributable to specific channel block): complete block; IC50 ([1]; estimated EC50, high-affinity binding site, biphasic concentration-response curve, two distinct binding sites): 0.001 µM; inhibition at 0.1 µM ([1]; read-out: block, % of the control current amplitude): 41 ± 13%"
